Values belong to the compound of their own block, whether it stands above or below them. Active and inactive are the calls of the source. No cut-off for these calls is given here.
Tests used:
[1] = Selectivity index, ratio of CC50 for human HepAD38 cells to EC50 for Hepatitis B virus; format: toxicity, cell-based; conditions: read-out: Ratio CC50/EC50
[2] = test system: Hepatitis B virus; assay: Antiviral activity against Hepatitis B virus in human HepAD38 cells assessed as inhibition of extracellular viral replication incubated for 2 days followed by 3 day incubation with fresh medium containing compound for 72 hrs by qRT-PCR analysis; format: functional, organism-based
[3] = Cytotoxicity against human HepAD38 cells after 7 days by MTT assay; format: cell-based
[4] = test system: Hepatitis B virus; assay: Antiviral activity against Hepatitis B virus in human HepAD38 cells assessed as inhibition of extracellular viral replication at 10 uM incubated for 2 days followed by 3 day incubation with fresh medium containing compound for 72 hrs by qRT-PCR analysis; format: functional
[5] = test system: Hepatitis B virus; assay: Antiviral activity against Hepatitis B virus in human HuH7 cells assessed as reduction in HBsAg secretion at 25 uM incubated for 2 days followed by 3 day incubation with fresh medium containing compound for 7 days by time-resolved fluoro-immunoassay; format: functional, organism-based; conditions: Huh-7
[6] = test system: Hepatitis B virus; assay: Antiviral activity against Hepatitis B virus in human HuH7 cells assessed as reduction in HBeAg secretion incubated for 2 days followed by 3 day incubation with fresh medium containing compound for 7 days by time-resolved fluoro-immunoassay; format: functional, organism-based; conditions: Huh-7
[7] = test system: Hepatitis B virus; assay: Effect on transcription level in Hepatitis B virus assessed as pgRNA level in human HuH7 cells after 48 hrs by qRT-PCR analysis; format: functional, organism-based; conditions: Huh-7
[8] = test system: Hepatitis B virus; assay: Antiviral activity against Hepatitis B virus in human HuH7 cells assessed as reduction in HBeAg secretion at 25 uM incubated for 2 days followed by 3 day incubation with fresh medium containing compound for 7 days by time-resolved fluoro-immunoassay; format: functional, organism-based; conditions: Huh-7
[9] = test system: Hepatitis B virus; assay: Antiviral activity against Hepatitis B virus in human HuH7 cells assessed as inhibition of intracellular viral replication at 2.5 and 25 uM after 48 hrs by qRT-PCR analysis; format: functional, organism-based; conditions: Huh-7

EC50 [2]: 12.2 µM
SMILES: COc1cc(CSc2nc(Cn3nnc4ccccc43)c(I)c(=O)[nH]2)cc(OC)c1
selectivity ratio [1]: 12
CC50 at 168 h [3]: 146 µM
inhibition at 10 µM [4]: 59%

SMILES: COc1ccc(Cc2nc(SCCOc3ccc([N+](=O)[O-])cc3)[nH]c(=O)c2I)cc1OC
inhibition at 10 µM [4]: 6%

EC50 [2]: 40.8 µM
SMILES: COc1ccc(Cc2nc(SC3CCCCCC3)[nH]c(=O)c2I)cc1OC
selectivity ratio [1]: 2.4
CC50 at 168 h [3]: 98 µM
inhibition at 10 µM [4]: 31%

SMILES: Cc1cc(C)cc(Cc2nc(SCc3ccc(C#N)cc3)[nH]c(=O)c2I)c1
inhibition at 10 µM [4]: 33%

SMILES: O=c1[nH]c(SCc2ccc([N+](=O)[O-])cc2)nc(Cc2cc(F)cc(F)c2)c1I
inhibition at 10 µM [4]: 47%

SMILES: COc1ccc(Cc2nc(SCc3ccccc3[N+](=O)[O-])[nH]c(=O)c2I)cc1OC
inhibition at 10 µM [4]: 62%

SMILES: N#Cc1ccc(CSc2nc(Cc3cc(F)cc(F)c3)c(I)c(=O)[nH]2)cc1
inhibition at 10 µM [4]: 14%

SMILES: N#Cc1ccc(CSc2nc(Cc3ccccc3)c(I)c(=O)[nH]2)cc1
inhibition at 10 µM [4]: 63%

SMILES: Cc1ccc(OCCSc2nc(Cn3nnc4ccccc43)c(I)c(=O)[nH]2)cc1
inhibition at 10 µM [4]: 35%

SMILES: O=c1[nH]c(SCCOc2ccc([N+](=O)[O-])cc2)nc(Cc2ccccc2)c1I
inhibition at 10 µM [4]: 13%

SMILES: Cc1cc(C)cc(Cc2nc(SCc3ccc([N+](=O)[O-])cc3)[nH]c(=O)c2I)c1
inhibition at 10 µM [4]: 25%

EC50 [2]: 4.84 µM
SMILES: COc1ccc(Cc2nc(SCc3ccc(C#N)cc3)[nH]c(=O)c2I)cc1OC
selectivity ratio [1]: 19
CC50 at 168 h [3]: 92 µM
inhibition at 10 µM [4]: 67%

SMILES: O=c1[nH]c(SCc2ccc(C(F)(F)F)cc2)nc(Cn2nnc3ccccc32)c1I
inhibition [4]: inactive

SMILES: O=c1[nH]c(SCc2ccc(I)cc2)nc(Cn2nnc3ccccc32)c1I
inhibition at 10 µM [4]: 34%

SMILES: O=c1[nH]c(SCc2ccc([N+](=O)[O-])cc2)nc(Cc2ccccc2)c1I
inhibition [4]: inactive

SMILES: N#Cc1ccc(CSc2nc(Cn3nnc4ccccc43)c(I)c(=O)[nH]2)cc1
inhibition at 10 µM [4]: 27%

SMILES: COc1cc(CSc2nc(Cc3ccc(OC)c(OC)c3)c(I)c(=O)[nH]2)cc(OC)c1
inhibition at 10 µM [4]: 41%

SMILES: Nc1ccn([C@H]2CS[C@@H](CO)O2)c(=O)n1
selectivity ratio [1]: > 137
EC50 [2]: 0.731 µM
CC50 at 168 h [3]: > 100 µM
inhibition at 10 µM [4]: 88%

SMILES: O=c1[nH]c(SCCOc2ccc([N+](=O)[O-])cc2)nc(Cc2cc(F)cc(F)c2)c1I
inhibition at 10 µM [4]: 9%

SMILES: O=c1[nH]c(SCCOc2ccc(Br)cc2)nc(Cn2nnc3ccccc32)c1I
inhibition at 10 µM [4]: 31%

SMILES: COc1ccc(Cc2nc(SC3C=CCCC3)[nH]c(=O)c2I)cc1OC (configuration not stated)
inhibition at 10 µM [4]: 52%

SMILES: Cc1cc(C)cc(Cc2nc(SCCOc3ccc([N+](=O)[O-])cc3)[nH]c(=O)c2I)c1
inhibition at 10 µM [4]: 20%

EC50 [2]: 0.376 µM
SMILES: COc1ccc(Cc2nc(SCc3ccc([N+](=O)[O-])cc3)[nH]c(=O)c2I)cc1OC
selectivity ratio [1]: 330
Activity [5]: Active
Activity [6]: Dose-dependent effect
Activity [7]: inactive
CC50 at 168 h [3]: 124 µM
inhibition at 10 µM [4]: 81%
Activity [8]: Active
Activity [9]: Active

SMILES: COc1ccc(Cc2nc(SCCOc3ccc(C)cc3)[nH]c(=O)c2I)cc1OC
inhibition at 10 µM [4]: 49%

SMILES: COc1ccc(Cc2nc(SCCOc3ccc(Br)cc3)[nH]c(=O)c2I)cc1OC
inhibition [4]: inactive

SMILES: O=c1[nH]c(SCc2ccc([N+](=O)[O-])cc2)nc(Cn2nnc3ccccc32)c1I
inhibition at 10 µM [4]: 49%

SMILES: COc1cccc(CSc2nc(Cc3ccc(OC)c(OC)c3)c(I)c(=O)[nH]2)c1
inhibition [4]: inactive

SMILES: COc1ccc(Cc2nc(SCc3ccc(C(F)(F)F)cc3)[nH]c(=O)c2I)cc1OC
inhibition at 10 µM [4]: 54%

SMILES: COc1ccc(Cc2nc(SCc3ccc(I)cc3)[nH]c(=O)c2I)cc1OC
inhibition at 10 µM [4]: 17%

EC50 [2]: 4.28 µM
SMILES: COc1ccc(Cc2nc(SCc3cccc(Cl)c3)[nH]c(=O)c2I)cc1OC
selectivity ratio [1]: 27.8
CC50 at 168 h [3]: 119 µM
inhibition at 10 µM [4]: 65%

EC50 [2]: 0.469 µM
SMILES: O=c1[nH]c(SCCOc2ccc([N+](=O)[O-])cc2)nc(Cn2nnc3ccccc32)c1I
selectivity ratio [1]: 111
Activity [5]: Active
Activity [6]: Dose-dependent effect
Activity [7]: inactive
CC50 at 168 h [3]: 52 µM
inhibition at 10 µM [4]: 74%
Activity [8]: Active
Activity [9]: Active

Source: ChEMBL document CHEMBL3758143, “5-Iodo-2-arylalkylthio-6-aryl pyrimidin-4(3H)-ones as non-nucleoside anti-HBV agents” (Medchemcomm, 2015)
